These results are taken from US20250019373A1, “ARYL OR HETEROARYL DERIVATIVE, AND PHARMACEUTICAL COMPOSITION COMPRISING SAME AS ACTIVE INGREDIENT FOR PREVENTION OR TREATMENT OF KINASE-RELATED DISEASES” (VORONOI INC., priority 2021, published 2025).

What is called EC50 is the concentration that produces a half-maximal response.

The subject of one assay is HT-29 cells. Nature of the assay: Cell necrosis inhibitory activity under necroptosis-inducing conditions (TNF-α, Z-VAD-FMK, LCL161) in HT-29 cells, Cell Titer-Glo. The note with it: Homo sapiens, 100 ng/mL TNF-α + 25 μM Z-VAD-FMK + Smac mimetic LCL161, 24 hours, cell viability. Type of assay: cell-based. In a few lines: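 HT-29 cells seeded 24 h, then necroptosis induced with 100 ng/mL TNF-α, 25 μM Z-VAD-FMK and 10 μM LCL161 for 10 min before compound (11 points, 3-fold, top 0.1 or 1 μM; 0.05% DMSO). After 24 h, viability by CellTiter-Glo luminescence relative to untreated controls gave EC50 (nM).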
(Cellular ATP, detected with luciferase, serves as a proxy for viable cell number.)

Another assay deals with T1, RIPK1 (Homo sapiens, UniProt Q13546).
T1 construct: purchased DiscoverX
T1 sequence (Q13546 1-671): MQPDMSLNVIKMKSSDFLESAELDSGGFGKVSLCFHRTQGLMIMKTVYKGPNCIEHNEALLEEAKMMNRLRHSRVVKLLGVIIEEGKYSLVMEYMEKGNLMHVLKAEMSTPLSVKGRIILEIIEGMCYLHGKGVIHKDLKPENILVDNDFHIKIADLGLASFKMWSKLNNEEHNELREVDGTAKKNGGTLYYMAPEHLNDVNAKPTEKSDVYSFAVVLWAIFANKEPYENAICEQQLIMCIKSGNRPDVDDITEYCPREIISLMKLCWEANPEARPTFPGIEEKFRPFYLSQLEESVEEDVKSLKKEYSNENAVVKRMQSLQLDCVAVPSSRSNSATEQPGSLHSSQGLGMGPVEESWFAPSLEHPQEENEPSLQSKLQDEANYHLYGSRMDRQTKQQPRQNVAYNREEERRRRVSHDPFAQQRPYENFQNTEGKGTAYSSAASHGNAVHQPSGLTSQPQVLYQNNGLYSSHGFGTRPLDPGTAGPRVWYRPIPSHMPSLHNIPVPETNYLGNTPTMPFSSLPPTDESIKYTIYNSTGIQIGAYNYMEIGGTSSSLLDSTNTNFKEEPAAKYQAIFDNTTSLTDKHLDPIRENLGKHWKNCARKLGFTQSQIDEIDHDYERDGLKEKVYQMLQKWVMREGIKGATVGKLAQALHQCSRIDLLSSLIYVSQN
The assay is described as follows: RIPK1 inhibitory activity, DiscoverX scanMAX kinase panel (% control). The assay is classed as binding. The note with it: drug concentration 1 μM in DMSO, <35% counted as active, read-out: control percentage (% control) RIPK1. As for the experimental part: To evaluate the RIPK1 inhibitory activity of a compound according to the present invention, the following experiment was performed. Specifically, for Examples 3 and 30 selected from the compounds of Examples of the present invention, enzyme (kinase) selectivity was measured by DiscoverX, and the experiment was conducted using a panel for scanMAX™ kinase analysis. Here, the enzyme was treated with a drug having a concentration of 1 μM in DMSO, and a control percentage (% control) was determined in the same manner as Formula 1 below.
Here, the positive control refers to a compound showing a control percentage of 0%, and the negative control is DMSO showing a control percentage of 100%. In addition, in terms of the enzyme selectivity of the present invention, when the control percentage with respect to an enzyme is <35% (i.e., less than 35%), it was determined that the compound has activity against the corresponding enzyme.

On to `COc1ncc(-c2ccc3nc(NC(C)=O)cn3n2)cc1NC(=O)N1OCC[C@H]1c1ccccc1` [Example 3, (S)-N-(5-(2-acetamidoimidazo[1,2-b]pyridazin-6-yl)-2-methoxypyridin-3-yl)-3-phenylisoxazolidine-2-carboxamide], for which the EC50 in the assay with HT-29 cells amounted to 0.6 nM. In addition, the remaining binding at 1 µM at RIPK1 was determined as 1%.

With `COc1ncc(-c2ccc3nc(N)nn3c2)cc1NC(=O)N1OCC[C@H]1c1ccccc1` [Example 30, (S)-N-(5-(2-amino-[1,2,4]triazolo[1,5-a]pyridin-6-yl)-2-methoxypyridin-3-yl)-3-phenylisoxazolidine-2-carboxamide], the EC50 with HT-29 cells is 3.8 nM. Moreover, the remaining binding at 1 µM at RIPK1 worked out at 0%.

With `Nc1nc2cc(-c3ccc(F)c(NC(=O)N4OCC[C@H]4c4ccccc4)c3F)ccn2n1` [Example 134, (S)-N-(3-(2-amino-[1,2,4]triazolo[1,5-a]pyridin-7-yl)-2,6-difluorophenyl)-3-phenylisoxazolidine-2-carboxamide], the EC50 in the assay with HT-29 cells amounted to 13 nM.

`Cc1ccc(-c2ccc3nc(N)c(C(=O)[C@@H]4C[C@@H]4F)n3c2)cc1NC(=O)N1OCC[C@H]1c1ccccc1` [Example 135, (S)-N-(5-(2-amino-3-((1S,2S)-2-fluorocyclopropane-1-carbonyl)imidazo[1,2-a]pyridin-6-yl)-2-methylphenyl)-3-phenylisoxazolidine-2-carboxamide]: the EC50 with HT-29 cells was found to be 0.2 nM.

Turning to `Cc1ccc(-c2ccn3nc(N)cc3c2)cc1NC(=O)N1CCOC[C@H]1c1ccccc1` [Example 136, (R)-N-(5-(2-aminopyrazolo[1,5-a]pyridin-5-yl)-2-methylphenyl)-3-phenylmorpholine-4-carboxamide], the EC50 in the assay on HT-29 cells was determined as 5.4 nM.

Regarding `Cc1ccc(-c2ccn3nc(N)cc3c2)cc1NC(=O)N1CCO[C@@H](c2ccccc2)C1` [Example 137, (S)-N-(5-(2-aminopyrazolo[1,5-a]pyridin-5-yl)-2-methylphenyl)-2-phenylmorpholine-4-carboxamide], in the assay on HT-29 cells, the half-maximal effective concentration (EC50) was 49.2 nM.

For the molecule `Cc1ccc(-c2ccn3nc(N)cc3c2)cc1NC(=O)N1Oc2ccccc2[C@H]1c1ccccc1` [Example 139, (R)-N-(5-(2-aminopyrazolo[1,5-a]pyridin-5-yl)-2-methylphenyl)-3-phenylbenzo[d]isoxazole-2(3H)-carboxamide], the EC50 in the assay on HT-29 cells was found to be 2.2 nM.

With `Cc1ccc(-c2ccn3nc(N)cc3c2)cc1NC(=O)N1OCC2(CC2)[C@H]1c1ccccc1` [Example 140, (R)-N-(5-(2-aminopyrazolo[1,5-a]pyridin-5-yl)-2-methylphenyl)-7-phenyl-5-oxa-6-azaspiro[2.4]heptane-6-carboxamide], in the assay on HT-29 cells, the EC50 came to 1.7 nM.

`Cc1ccc(-c2ccc3ncn(C)c3n2)cc1NC(=O)N1OCC[C@H]1c1ccccc1` [Example 143, (S)-N-(2-methyl-5-(3-methyl-3H-imidazo[4,5-b]pyridin-5-yl)phenyl)-3-phenylisoxazolidine-2-carboxamide]: the EC50 with HT-29 cells turned out to be 5 nM.
